Source: patent publication US11028127B2, “Peptides capable of reactivating p53 mutants” (Yeda Research and Development Co. Ltd., priority 2013, dated 2021)
Where no end group is shown, it is not given here.

Tests used:
[1] = test system: SKBR3 breast cancer cells (Mut-p53, position 175); assay: Crystal violet viability assay; type: cell-based; details: shCon cells
From the text: (§1) FIGS. 15A and 15B are bar graphs illustrating the effect of the various indicated peptides on the viability of breast cancer cells expressing different Mut-p53 isoforms, as determined by crystal violet assay. FIG. 15A: MDA-MB-231 cells expressing Mut-p53 with a mutation at position 280 of the DBD. FIG. 15B: SKBR3 cells expressing Mut-p53 with mutation at position 175 within the DBD. The bar graphs in FIGS. 15A and 15B show for each tested peptide the optical density reads at 595 nm, reflecting the number of cells in the plate after treatment, normalized to the non-treated (NT) samples.
(§2) Cells were cultured in 96 wells plates with 2500-4000 cells/well in 0.1 ml and incubated overnight at 37° C. in order to adhere to the plate. Serial dilutions of different peptides (0.5 μg/ml) were added in 0.1 ml aliquots and the plates incubated for additional 48 h at 37° C. Then medium was removed and cell lysis was determined by staining the cells with crystal violet (0.5%) in methanol/water (1:4, v/v), 50 μl each well, for 10 min, followed by 3 washes with PBS. Afterwards, 10% acetic acid (50 μl) was added to each well and shaken for 10 min. Then, automatic plate reading was performed at 595 nm.
(§3) Experiments using different cancer cell lines expressing endogenously different p53 mutant isoforms were performed. FIGS. 15A and 15B illustrate two representative experiments performed on MDA-MB-231 (FIG. 15A) and SKBR3 (FIG. 15B) breast cancer cells expressing Mut-p53 with mutations at positions 280 or 175, respectively, within the DNA Binding Domain (DBD). To examine the peptides' specificity for Mut-p53, the control used was such cells with a knockdown of Mut-p53 (shp53).

[2] = test system: MDA-MB-231 breast cancer cells (Mut-p53, position 280); assay: Crystal violet viability assay; type: cell-based; details: shCon cells
From the text: as §1, §2, §3

[3] = Solubility in DMSO; type: physicochemical; details: at a concentration of 10 mg/ml
From the text: Addition of a poly arginine tail to peptides dramatically increases the solubility of peptides with a high content of hydrophobic amino acids. […] Lead peptides were further subjected to rigorous examination of effects on cell viability in a Mut-p53 specific manner.

[4] = test system: ES2 ovarian carcinoma cells (Mut-p53, position 241); assay: Annexin-V/PI apoptosis assay by flow cytometry; type: cell-based; details: 12 ug/ml
Protocol: (§4) FIGS. 17A, 17B, 17C and 17D illustrate representative experiments performed on ES2 ovarian carcinoma cells expressing Mut-p53 mutated at position 241 within the DBD. […] Cells were harvested and an apoptosis assay (FIGS. 17A and 17B) was performed using the Annexin-V staining kit (Roche, REF 11 988 549 001). Non-fixed cells were stained with both anti Annexin FITC conjugated antibody to detect apoptotic cells, and PI (propidium iodide) to stain dead cells, according to the manufacturer's instructions. Stained cells were then analyzed by flow cytometry. A total of 10,000 cells was counted for each sample and divided into four sub populations according to staining intensity; cells negative for both PI and Annexin (−PI, −Annexin) are termed live; cells negative for PI and positive for Annexin (−PI, +Annexin) are going through early stages of apoptosis; cells positive for PI and Annexin (+PI, +Annexin) are dead cells that underwent an apoptotic process; and cells positive for PI and negative for Annexin (+PI, −Annexin) are assumed as dead cells that died by a non-apoptotic process such as necrosis.
FIGS. 17A and 17B illustrate a representative experiments performed on ES2 ovarian carcinoma cells (FIGS. 17A-D) expressing Mut-p53 with a mutation at positions 241 within the DBD. […] Cells were harvested, and 60% of the cells were taken for Annexin-PI apoptosis assay and 40% for extraction of RNA, cDNA synthesis and real time PCR analysis. Apoptosis was assayed using the Annexin-V staining kit (Roche, REF 11 988 549 001). Non-fixed cells were stained with both anti Annexin FITC conjugated antibody to detect apoptotic cells, and PI (propidium-iodide) to stain dead cells permeable to the compound, according to the manufacturer's instructions. Stained cells were then analyzed by flow cytometry. A total of 10,000 cells was counted for each sample and divided into four subpopulations according to staining intensity: cells negative for both PI and Annexin (−PI, −Annexin) are termed live; cells negative for PI and positive for Annexin (−PI, +Annexin) are going through early stages of apoptosis; cells positive for PI and Annexin (+PI, +Annexin) are dead cells that underwent an apoptotic process; and cells positive for PI and negative for Annexin (+PI, −Annexin) are assumed to be dead cells that died a non-apoptotic death such as necrosis. […] Treatment with pCAPs 242 and 250 causes a rapid increase in apoptotic cells followed by cell death and after 5 hours of treatment 12% of cells are Annexin positive and about 7% are dead. After 16 and 24 hours of treatment with pCAP 250 the apoptotic population increases to about 27% and dead cells accumulate to 29% at 16h and 36% after 24h. […] CD95 and Btg-2 expression is elevated up to 6 fold over non-treated cells.

[5] = test system: ES2 ovarian carcinoma cells (Mut-p53, position 241); assay: qRT-PCR of p53 target genes (p21, PUMA, CD95, Btg-2); type: cell-based; details: 12 ug/ml, over non-treated cells
Protocol: as §4
FIGS. 17A and 17B illustrate a representative experiments performed on ES2 ovarian carcinoma cells (FIGS. 17A-D) expressing Mut-p53 with a mutation at positions 241 within the DBD. […] Stained cells were then analyzed by flow cytometry. […]

HANLHHTRRRRRRRRRRR [pCAP-146]
Mut-p53 specific effect on cell viability, SKBR3 shCon cells [1]: almost no specific effect | Mut-p53 specific effect on cell viability, MDA-MB-231 shCon cells [2]: significant decrease

YRRLLIGMMW [pCAP-25]
solubility in DMSO [3]: insoluble

myr-RRHSTPHPD [pCAP-250]
apoptotic population ([4]; after 16 and 24 hours of treatment): about 27% | Annexin positive cells ([4]; after 5 hours of treatment): 12% | dead cells ([4]; after 5 hours of treatment): about 7% | dead cells ([4]; after 24h): 36% | dead cells ([4]; at 16h): 29% | p21 and PUMA mRNA expression increase over time [5]: up to 10 fold
